Test results: patent US20050228180A1, “Alpha, omega-dicarboximide derivatives as useful uro-selective a1a adrenoceptor blockers” (priority 2002, published 2005)
Structures can show the parent of a compound that is named as a salt.

Legend:
[1] = target: T1, α1D adrenoceptor (aorta) (Rattus norvegicus, UniProt P23944); assay: In vitro functional assay, isolated aorta, norepinephrine contraction; type: cell-based; conditions: read-out: α Adrenoceptor Subtype (pKB) α1D (converted)
T1 construct: Isolated tissues were mounted in organ bath containing Krebs Henseleit buffer; from tissue; host or cells: isolated rat aorta
T1 sequence (P23944 1-561): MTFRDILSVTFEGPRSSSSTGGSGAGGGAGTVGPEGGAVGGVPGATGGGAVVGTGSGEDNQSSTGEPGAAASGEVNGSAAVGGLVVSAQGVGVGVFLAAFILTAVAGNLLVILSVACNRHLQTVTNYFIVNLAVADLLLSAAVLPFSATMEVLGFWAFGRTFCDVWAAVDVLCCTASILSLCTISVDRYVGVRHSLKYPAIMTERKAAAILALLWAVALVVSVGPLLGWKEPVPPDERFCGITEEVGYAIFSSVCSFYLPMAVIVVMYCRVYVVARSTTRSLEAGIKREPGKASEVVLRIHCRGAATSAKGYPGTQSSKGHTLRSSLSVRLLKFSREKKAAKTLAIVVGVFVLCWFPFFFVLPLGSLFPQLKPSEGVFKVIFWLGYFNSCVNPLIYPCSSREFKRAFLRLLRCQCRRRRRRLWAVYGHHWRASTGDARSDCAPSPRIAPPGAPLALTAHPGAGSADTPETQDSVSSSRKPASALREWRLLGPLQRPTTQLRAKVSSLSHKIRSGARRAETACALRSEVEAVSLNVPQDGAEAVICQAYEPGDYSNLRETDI
In short: (§1)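 Rat aorta, spleen and prostate strips from urethane-anaesthetised male Wistar rats in Krebs-Henseleit at 37 °C (95% O2/5% CO2), 2 g or 1 g resting tension, 2 h equilibration. Norepinephrine (aorta) or phenylephrine (spleen, prostate) contraction curves run without and with compound at […]; antagonist affinity given as pKB.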

[2] = target: T2, α1B adrenoceptor (Rattus norvegicus, UniProt P15823); assay: Radioligand binding, [3H] prazosin displacement, rat liver membranes; conditions: read-out: Affinity (Ki) α1B (Rat Liver)
T2 construct: from tissue; host or cells: rat liver membranes
T2 sequence (P15823 1-515): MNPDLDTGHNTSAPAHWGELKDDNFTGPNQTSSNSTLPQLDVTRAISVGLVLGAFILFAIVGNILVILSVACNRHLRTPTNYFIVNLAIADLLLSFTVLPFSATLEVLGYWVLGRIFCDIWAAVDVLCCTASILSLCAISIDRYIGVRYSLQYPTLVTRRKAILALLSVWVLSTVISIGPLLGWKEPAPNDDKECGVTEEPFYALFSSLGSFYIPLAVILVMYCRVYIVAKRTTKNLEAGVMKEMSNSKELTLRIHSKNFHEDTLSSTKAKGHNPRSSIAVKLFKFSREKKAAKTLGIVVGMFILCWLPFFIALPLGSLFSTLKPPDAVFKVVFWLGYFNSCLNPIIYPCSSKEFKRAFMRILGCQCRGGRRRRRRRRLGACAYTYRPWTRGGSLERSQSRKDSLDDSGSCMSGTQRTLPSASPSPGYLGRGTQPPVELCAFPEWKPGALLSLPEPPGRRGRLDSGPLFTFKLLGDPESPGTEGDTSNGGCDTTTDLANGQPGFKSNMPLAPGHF
In short: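 Displacement of [3H]prazosin measured by filtration and counting, with Ki from IC50 via Cheng–Prusoff and nonspecific binding set by 300 nM prazosin. Native rat submaxillary (α1A) or liver (α1B) membranes, 150-250 μg protein, 1 h at 24-25° C in Tris/EDTA pH 7.4.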

[3] = target: T3, α1B adrenoceptor (spleen) (Rattus norvegicus, UniProt P15823); assay: In vitro functional assay, isolated spleen, phenylepinephrine contraction; type: cell-based; conditions: read-out: α Adrenoceptor Subtype (pKB) α1B (converted)
T3 construct: Isolated tissues were mounted in organ bath containing Krebs Henseleit buffer; from tissue; host or cells: isolated rat spleen
T3 sequence (P15823 1-515): T2 sequence (P15823 1-515)
In short: as §1

Kb [1]: 8.32 nM
Ki [2]: 127 nM
Kb [3]: 7.41 nM
SMILES: CC(C)Oc1ccccc1N1CCN(CCCN2C(=O)C3CC(O)C(O)CC3C2=O)CC1 (stereo not drawn) [Compound No. 23, 2-[3-{4-(2-Isopropoxyphenyl)piperazin-1-yl}propyl]-5,6-dihydroxy-3a,4,5,6,7,7a, hexahydro-1H-isoindole-1,3(2H)-dione-hydrochloride]
